Test results published in PubChem BioAssay AID1963445 (Molecular Pharmacology Branch, DTP, NCI, 2024).

System: MCF7 complex spheroid growth, % test/control
Test: Anticancer human tumor MCF7 cell line growth inhibition [Asc];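 also: spheroids exposed to compounds for 7 days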;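 as to viability, T/C: 100% = DMSO vehicle control wells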
Conditions: for IC50: curve of first compound; for viability, T/C: stronger effect = lower value
Method: Multicellular complex tumor spheroid response to apoptosis pathway targeting inhibitors Alrizomadlin, Pelcitoclax, and Dasminapant in combination with a variety of drugs and investigational agents in selected tumor cell lines
The MDM2 inhibitor alrizomadlin, the Bcl-2/Bcl-xL inhibitor pelcitoclax, and the IAPs inhibitor dasminapant were evaluated both individually and in combination with standard of care and investigational anticancer small molecules within a complex spheroid model of solid tumors. . Complex spheroids include a stromal component modeled by human endothelial cells (HUVEC) and fibroblasts modeled by human mesenchymal stem cells (MSCs). The concentration ranges selected for each drug and investigational agent were based upon clinically achievable concentrations if the clinical Cmax of the agent was known.
Compounds. The drugs and investigational agents: alrizomadlin (APG-115; NSC831270), pelcitoclax (APG-1252; NSC835773), dasminapant (APG-1387;NSC834197), TAK-243 (NSC785004), copanlisib (NSC809693), olaparib (NSC753686), talazoparib (NSC767125), cobimetinib (NSC 768068), eltanexor (KPT-8602, NSC 794443), abemaciclib (NSC 768073), sotorasib (NSC818433), adagrasib (NSC 831453), MRTX-1133 (NSC 836407), Iadademestat (ORY1001, NSC 806812), and RMC-4630 (NSC839698), were obtained from the NCI Developmental Therapeutics Program Chemical Repository. The FDA-approved anticancer drug set is available from the Developmental Therapeutics Program at https://dtp.cancer.gov/organization/dscb/obtaining/available plates.htm. […] The stock solutions were prepared in dimethyl sulfoxide (DMSO, Sigma-Aldrich, St. Louis, MO, cat. D2650) at 800-fold the tested concentration and stored at -70 degrees C prior to their use. All drugs and investigational agents were tested over a range starting from a high concentration at or near the clinical Cmax and decreasing in half-log increments. If the clinical Cmax for an agent had not been determined, the highest concentration tested was 10 microM.
The patient-derived cancer (PDC) cell lines include five colon adenocarcinomas: 186277-243-T-J2-PDC, 616215-338-R-J1-PDC, 439559-082-T-J2-PDC, 463943-066-T-J2-PDC, and 519858-162-T-J1-PDC; three pancreatic carcinomas: 323965-272-R-J2-PDC, 521955-158-R6-J3-PDC, and 521955-158-R2-J5-PDC; two uterine sarcomas: 327498-152-R-J2-PDC and 993429-296-R-J1-PDC; two rhabdomyosarcomas: 755483-174-R-J1-PDC and 772245-204-R-J1-PDC; two soft tissue sarcomas: 126254-015-R-J1-PDC and 494315-158-R-J1-PDC; two malignant fibrous histiocytomas: 317291-083-R-J1-PDC and 596521-263-R-J1-PDC; two breast carcinomas: 171881-019-R-J1-PDC and 885512-296-R-J2-PDC; and one ovarian carcinoma: 6556581-035-R-J-PDC were obtained from the NCI PDMR, (https://pdmr.cancer.gov). The established cell lines HSSY-2 synovial sarcoma (RRID:CVCL 8719), SYO-1 synovial sarcoma (RRID:CVCL_7146), MPNST malignant peripheral neural sheath tumor were obtained from the Sloan Kettering Institute. The following established cell lines were purchased from the American Type Culture Collection (ATCC, Manassas, VA), Sor the received from the NCI repository:, PANC-1 pancreatic carcinoma (CRL-1469, RRID:CVCL_0480), OVCAR-5 ovarian carcinoma (RRID:CVCL_1628), OVCAR-8 ovarian carcinoma (RRID:CVCL_1629), , MCF-7 breast carcinoma (CRL-12584, RRID:CVCL_0031), MDA-MB-231 breast carcinoma (CRL-12532, RRID:CVCL_0062), NCI-H1876 small cell lung carcinoma (CRL-5902, RRID:CVCL_1503), NCI-H510A small cell lung carcinoma (HTB-184, RRID:CVCL_1565), NCI-H1417 (CRL-5869, RRID:CVCL_1469), and NCI-H196 small cell lung carcinoma (CRL-5823, RRID:CVCL_1509). Dr. Peter Houghton (Greehey Children's Cancer Research Institute, University of Texas Health Science Center, San Antonio, TX) provided Rh-18 rhabdomyosarcoma (RRID:CVCL_1659). Pooled donor human umbilical vein endothelial cells (HUVEC, Lonza, cat. CC-2519) and human mesenchymal stem cells (hMSC, Lonza, cat. PT-2501) were purchased from Lonza (Walkersville, MD).
Cell Culture. […]

C#Cc1c(F)ccc2cc(O)cc(-c3ncc4c(N5CC6CCC(C5)N6)nc(OCC56CCCN5CC(F)C6)nc4c3F)c12 (configuration not stated) + CCN1C(C(=O)NC23CCC(C(=O)O)(CC2)CC3)C(c2cccc(Cl)c2F)C2(C(=O)Nc3cc(Cl)ccc32)C12CCCCC2
IC50 (second compound 0.00949 µM): > 10000 nM | IC50 (second compound 0.03 µM): > 10000 nM | IC50 (second compound 0.0949 µM): 59.8 nM | IC50 (second compound 0.3 µM): < 31.6 nM | IC50 (second compound 0.949 µM): < 31.6 nM | IC50 (second compound 3 µM): < 31.6 nM | viability, T/C (second compound 0.00949 µM, first compound 0.0316 µM): 92.6% | viability, T/C (second compound 0.00949 µM, first compound 0.1 µM): 114% | viability, T/C (second compound 0.00949 µM, first compound 0.316 µM): 111% | viability, T/C (second compound 0.00949 µM, first compound 1 µM): 102% | viability, T/C (second compound 0.00949 µM, first compound 3.16 µM): 107% | viability, T/C (second compound 0.00949 µM, first compound 10 µM): 76.4% | viability, T/C (second compound 0.03 µM, first compound 0.0316 µM): 100% | viability, T/C (second compound 0.03 µM, first compound 0.1 µM): 81.7% | viability, T/C (second compound 0.03 µM, first compound 0.316 µM): 91.8% | viability, T/C (second compound 0.03 µM, first compound 1 µM): 81.2% | viability, T/C (second compound 0.03 µM, first compound 3.16 µM): 102% | viability, T/C (second compound 0.03 µM, first compound 10 µM): 70.7% | viability, T/C (second compound 0.0949 µM, first compound 0.0316 µM): 47.6% | viability, T/C (second compound 0.0949 µM, first compound 0.1 µM): 60.5% | viability, T/C (second compound 0.0949 µM, first compound 0.316 µM): 36.4% | viability, T/C (second compound 0.0949 µM, first compound 1 µM): 42.2% | viability, T/C (second compound 0.0949 µM, first compound 3.16 µM): 47.8% | viability, T/C (second compound 0.0949 µM, first compound 10 µM): 32.9% | viability, T/C (second compound 0.3 µM, first compound 0.0316 µM): 27.1% | viability, T/C (second compound 0.3 µM, first compound 0.1 µM): 24.6% | viability, T/C (second compound 0.3 µM, first compound 0.316 µM): 28.6% | viability, T/C (second compound 0.3 µM, first compound 1 µM): 27.4% | viability, T/C (second compound 0.3 µM, first compound 3.16 µM): 23.5% | viability, T/C (second compound 0.3 µM, first compound 10 µM): 19.9% | viability, T/C (second compound 0.949 µM, first compound 0.0316 µM): 17.1% | viability, T/C (second compound 0.949 µM, first compound 0.1 µM): 19.2% | viability, T/C (second compound 0.949 µM, first compound 0.316 µM): 14.1% | viability, T/C (second compound 0.949 µM, first compound 1 µM): 17.8% | viability, T/C (second compound 0.949 µM, first compound 3.16 µM): 16.3% | viability, T/C (second compound 0.949 µM, first compound 10 µM): 10.8% | viability, T/C (second compound 3 µM, first compound 0.0316 µM): 12.8% | viability, T/C (second compound 3 µM, first compound 0.1 µM): 11.4% | viability, T/C (second compound 3 µM, first compound 0.316 µM): 11.5% | viability, T/C (second compound 3 µM, first compound 1 µM): 10.2% | viability, T/C (second compound 3 µM, first compound 3.16 µM): 14.1% | viability, T/C (second compound 3 µM, first compound 10 µM): 7.87%
